# Source: patent publication US10669271B2, “Heterocyclic compounds as immunomodulators” (Incyte Corporation, priority 2018, dated 2020)
# How the values were obtained:
# [1] = molecular target: PD-1/PD-L1 (Homo sapiens (Human), UniProt Q9NZQ7); assay: Homogeneous Time-Resolved Fluorescence (HTRF) PD-1/PD-L1 binding assay; details: recombinant human PD-1 and PD-L1, 25° C., pH 7.4
# Procedure: Example A. Homogeneous Time-Resolved Fluorescence (HTRF) PD-1/PD-L1 Binding Assay
# The assays were conducted in a standard black 384-well polystyrene plate with a final volume of 20 μL. Inhibitors were first serially diluted in DMSO and then added to the plate wells before the addition of other reaction components. The final concentration of DMSO in the assay was 1%. The assays were carried out at 25° C. in the PBS buffer (pH 7.4) with 0.05% Tween-20 and 0.1% BSA. Recombinant human PD-L1 protein (19-238) with a His-tag at the C-terminus was purchased from AcroBiosystems (PD1-H5229). Recombinant human PD-1 protein (25-167) with Fc tag at the C-terminus was also purchased from AcroBiosystems (PD1-H5257). PD-L1 and PD-1 proteins were diluted in the assay buffer and 10 μL was added to the plate well. Plates were centrifuged and proteins were preincubated with inhibitors for 40 minutes. The incubation was followed by the addition of 10 μL of HTRF detection buffer supplemented with Europium cryptate-labeled anti-human IgG (PerkinElmer-AD0212) specific for Fc and anti-His antibody conjugated to SureLight®-Allophycocyanin (APC, PerkinElmer-AD0059H). After centrifugation, the plate was incubated at 25° C. for 60 min. before reading on a PHERAstar FS plate reader (665 nm/620 nm ratio). Final concentrations in the assay were—3 nM PD1,10 nM PD-L1, 1 nM europium anti-human IgG and 20 nM anti-His-Allophycocyanin. IC50 determination was performed by fitting the curve of percent control activity versus the log of the inhibitor concentration using the GraphPad Prism 5.0 software.
# [2] = tested on: U2OS/PD-L1 cells and Jurkat-PD-1-SHP cells; assay: Src homology region 2 domain-containing phosphatase (SHP) assay; format: cell-based; details: Homo sapiens; U2OS/PD-L1 cells with Jurkat-PD-1-SHP cells, 2 hours
# Procedure: Example B. Src Homology Region 2 Domain-Containing Phosphatase (SHP) Assay
# U2OS/PD-L1 cells (DiscoveRx Corporation) were maintained in McCoy's 5A medium with addition of 10% FBS, 0.25 μg/ml Puromycin. After removing the culture media, the cell medium was replaced with assay medium (RPMI1640 medium with 1% FBS). The U2OS/PD-L1 cells were then added in 384-well black clear bottom assay plate (CELLCOAT® Tissue Culture Plates, Greiner Bio-One) at 5000 cells per well in 20 μL assay medium. Test compounds were prepared by serial dilution in DMSO and 125 nL compound were first transferred to the 384 REMP plate well (Thermofisher) by ECHO liquid handler (Labcyte) followed with addition of 27.5 μL assay medium. 5 μL/well compounds in the assay medium were transferred to the cell plate with 0.05% DMSO in the final assay at 0.5 μM. Jurkat-PD-1-SHP cells (DiscoveRx Corporation) were cultured in RPMI1640 medium supplemented with 10% FBS, 250 μg/ml Hygromycin B, 500 μg/ml G418. After the replacement of culture media with assay medium, 5,000 Jurkat-PD-1-SHP cells in 20 μL were dispensed into each well. The assay plate was incubated at 37° C., 5% CO2 for 2 hours before 2.5 μL PathHunter reagent 1 (DiscoveRx Corporation) were added to each well. The assay plate was shaken for 1 min at 350 rpm in the dark followed with addition of 10 μL PathHunter reagent 2 (DiscoveRx Corporation). Chemiluminescent signal was recorded with TopCount reader (Perkin Elmer) after incubation at room temperature for 1 hour. Wells with DMSO were served as the positive controls and wells containing no cells were used as negative controls. IC50 determination was performed by fitting the curve of percentage of control activity versus the log of the compound concentration using the GraphPad Prism 6.0 software.
# [3] = molecular target: PD-L1 (Homo sapiens (Human), UniProt Q9NZQ7); assay: PD-L1 whole blood internalization assay; format: cell-based; details: 1 ng/ml human interferon γ, PD-L1 expression on CD14+ cells, read-out: Whole Blood (24 HR) IC50
# Procedure: Example D. PD-L1 Whole Blood Internalization Assay
# To determine PD-L1 internalization in human whole blood, normal human blood (Biological Specialty Corp, Colmar. Pa.) was incubated in the presence or absence of a concentration range of test compounds and 1 ng/ml human interferon γ (R&D Systems Inc. Minn. […] Blood was then stained with PD-L1 (MIH1, eBioscience; or BD Biosciences San Jose, Calif.), CD14 (Life Technologies, Carlsbad, Calif.) for 30 minutes in the dark at room temperature. Whole Blood/red cells were lysed/fixed (lysis buffer BD Biosciences) for 5 minutes at 37° C. in the dark and then centrifuged at 1600 RPM for 5 minutes. Cells were resuspended in Stain Buffer (BD Bioscience, San Jose, Calif.) and transferred into 96 well round bottom plates (Corning). Cells were gated on CD14+(BD Biosciences) and PD-L1 expression determined by mean fluorescence intensity (MFI) (BD LSRFortessa™ X-20). IC50 determination was performed by fitting the curve of compound percent inhibition versus the log of the compound concentration using the GraphPad Prism 7.0 software.
# [4] = tested on: PD-L1 aAPC/CHO-K1 cells and Jurkat-PD-1-NFAT effector cells; assay: Nuclear factor of activated T-cells (NFAT) assay; format: cell-based; details: Cricetulus griseus; PD-L1 aAPC/CHO-K1 cells with Jurkat-PD-1-NFAT effector cells, 24 hours
# Procedure: Example C. Nuclear Factor of Activated T-Cells (NFAT) Assay
# PD-L1 aAPC/CHO-Klcells (Promega) were maintained in F-12 medium with addition of 10% FBS, 200 μg/ml Hygromycin B, 250 μg/ml Geneticin (G418). Jurkat-PD-1-NFAT effector cells (Promega) were cultured in RPMI 1640 medium supplemented with 10% FBS, 100 μg/ml Hygromycin B, 500 μg/ml G418. The culture media of PD-L1 aAPC/CHO-K1 cells were first replaced with assay medium (RPMI1640 medium with 1% FBS). The PD-L1 aAPC/CHO-K1 cells were then added in a white 384-well white clear bottom assay plate (CELLCOAT® Tissue Culture Plates, Greiner Bio-One) at 8000 per well in 10 μL assay medium. Test compounds were prepared by serial dilution in DMSO and 0.8 μL test compounds in DMSO were first transferred to the 384 REMP plate well (Thermofisher) by PlateMate Plus (Thermofisher) followed with addition of 50 μL plating medium. 5 μL compounds in the assay medium were transferred to the cells with 0.4% DMSO in the final assay at 2 μM. After removing the culture media, 10,000 Jurkat-PD-1-NFAT effector cells in 5 μL assay medium was dispensed into each well. The assay plate was incubated at 37° C., 5% CO2 for 24 hours. After the assay plate was equilibrated to room temp for 15 minutes, 20 µL/well of Bio-Glo™ reagent (Promega) were added. After 8 minutes incubation at room temperature, luminescence was read at with Pherastar microplate reader (BMG Labtech). The fold of induction (FOI) was calculated based on the ratio of luminescence normalized to the DMSO wells within each assay plate. The maximum percentage of induction was reported based on the ratio between the highest FOI of each compound and the maximum FOI of control compound within each assay plate. Wells with DMSO were served as the negative controls and wells containing control compound with the highest FOI were used as positive controls. EC50 determination was performed by fitting the curve of percent control activity versus the log of the compound concentration using the GraphPad Prism 6.0 software.
# PD-L1, sequence (Q9NZQ7 19-290): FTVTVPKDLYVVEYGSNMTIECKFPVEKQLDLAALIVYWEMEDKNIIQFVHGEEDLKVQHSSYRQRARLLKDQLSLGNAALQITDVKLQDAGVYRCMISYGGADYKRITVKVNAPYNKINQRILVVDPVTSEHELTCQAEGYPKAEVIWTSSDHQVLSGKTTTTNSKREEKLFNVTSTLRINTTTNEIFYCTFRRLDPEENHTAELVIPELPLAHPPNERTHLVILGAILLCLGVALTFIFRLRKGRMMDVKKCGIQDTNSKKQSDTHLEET
# PD-1/PD-L1, sequence (Q9NZQ7 19-238): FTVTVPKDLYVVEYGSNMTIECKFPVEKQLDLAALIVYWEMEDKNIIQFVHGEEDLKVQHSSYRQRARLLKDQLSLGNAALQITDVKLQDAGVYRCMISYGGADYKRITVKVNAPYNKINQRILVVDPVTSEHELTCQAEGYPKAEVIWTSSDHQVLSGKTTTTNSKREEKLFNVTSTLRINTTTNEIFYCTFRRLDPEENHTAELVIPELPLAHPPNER
SMILES,IC50 [1] [nM],IC50 [2] [nM],IC50 [3] [nM],EC50 [4] [nM]
"Cc1nc(Nc2cccc(-c3cccc(-c4nc5cc(CN6CCC(C(=O)O)CC6)cc(C#N)c5o4)c3C)c2C)c2ncc(CN3CC[C@@H](O)C3)cc2n1 [Example 1, (R)-1-((7-cyano-2-(3′-(7-((3-hydroxypyrrolidin-1-yl)methyl)-2-methylpyrido[3,2-d]pyrimidin-4-ylamino)-2,2′-dimethylbiphenyl-3-yl)benzo[d]oxazol-5-yl)methyl)piperidine-4-carboxylic Acid]",≤ 10,≤ 10,10 to 100,10 to 100
"Cc1nc(Nc2cccc(-c3cccc(-c4nc5cc(CN6CCC(C(=O)O)CC6)cc(C#N)c5o4)c3C)c2C)c2ncc(CN3CC[C@@](C)(O)C3)cc2n1 [Example 2, (R)-1-((7-cyano-2-(3′-(7-((3-hydroxy-3-methylpyrrolidin-1-yl)methyl)-2-methylpyrido[3,2-d]pyrimidin-4-ylamino)-2,2′-dimethylbiphenyl-3-yl)benzo[d]oxazol-5-yl)methyl)piperidine-4-carboxylic Acid]",≤ 10,≤ 10,10 to 100,10 to 100
"Cc1nc(Nc2cccc(-c3cccc(-c4nc5cc(CN6CCC(C(=O)O)CC6)cc(C#N)c5o4)c3C)c2C)c2ncc(CN3CC[C@](C)(O)C3)cc2n1 [Example 3, (S)-1-((7-cyano-2-(3′-(7-((3-hydroxy-3-methylpyrrolidin-1-yl)methyl)-2-methylpyrido[3,2-d]pyrimidin-4-ylamino)-2,2′-dimethylbiphenyl-3-yl)benzo[d]oxazol-5-yl)methyl)piperidine-4-carboxylic Acid]",≤ 10,≤ 10,10 to 100,10 to 100
"Cc1nc(Nc2cccc(-c3cccc(-c4nc5cc(CN6CC[C@@H](C(=O)O)C6)cc(C#N)c5o4)c3C)c2C)c2ncc(CN[C@@H](C)CO)cc2n1 [Example 9, (R)-1-((7-cyano-2-(3′-(7-(((S)-1-hydroxypropan-2-ylamino)methyl)-2-methylpyrido[3,2-d]pyrimidin-4-ylamino)-2,2′-dimethylbiphenyl-3-yl)benzo[d]oxazol-5-yl)methyl)pyrrolidine-3-carboxylic Acid]",≤ 10,≤ 10,–,10 to 100
"Cc1nc(Nc2cccc(-c3cccc(-c4nc5cc(CN6CC[C@@H](C(=O)O)C6)cc(C#N)c5o4)c3C)c2C)c2ncc(CNC[C@H](C)O)cc2n1 [Example 10, (R)-1-((7-cyano-2-(3′-(7-(((S)-2-hydroxypropylamino)methyl)-2-methylpyrido[3,2-d]pyrimidin-4-ylamino)-2,2′-dimethylbiphenyl-3-yl)benzo[d]oxazol-5-yl)methyl)pyrrolidine-3-carboxylic Acid]",≤ 10,≤ 10,–,10 to 100
"Cc1nc(Nc2cccc(-c3cccc(-c4nc5cc(CN6CC[C@@](C)(C(=O)O)C6)cc(C#N)c5o4)c3C)c2C)c2ncc(CNC[C@H](C)O)cc2n1 [Example 15, (R)-1-((7-cyano-2-(3′-(7-(((S)-2-hydroxypropylamino)methyl)-2-methylpyrido[3,2-d]pyrimidin-4-ylamino)-2,2′-dimethylbiphenyl-3-yl)benzo[d]oxazol-5-yl)methyl)-3-methylpyrrolidine-3-carboxylic Acid]",≤ 10,≤ 10,–,10 to 100
"Cc1c(Nc2nc(C(F)(F)F)nc3cc(CN4CC[C@@H](O)C4)cnc23)cccc1-c1cccc(-c2nc3cc(CN4CC[C@@H](C(=O)O)C4)cc(C#N)c3o2)c1C [Example 20, (R)-1-((7-cyano-2-(3′-(7-(((R)-3-hydroxypyrrolidin-1-yl)methyl)-2-(trifluoromethyl)pyrido[3,2-d]pyrimidin-4-ylamino)-2,2′-dimethylbiphenyl-3-yl)benzo[d]oxazol-5-yl)methyl)pyrrolidine-3-carboxylic Acid]",–,≤ 10,10 to 100,10 to 100
"Cc1c(Nc2nc(C(F)(F)F)nc3cc(CN4CC[C@@H](O)C4)cnc23)cccc1-c1cccc(-c2nc3cc(CN4CC[C@@](C)(C(=O)O)C4)cc(C#N)c3o2)c1C [Example 21, (R)-1-((7-cyano-2-(3′-(7-(((R)-3-hydroxypyrrolidin-1-yl)methyl)-2-(trifluoromethyl)pyrido[3,2-d]pyrimidin-4-ylamino)-2,2′-dimethylbiphenyl-3-yl)benzo[d]oxazol-5-yl)methyl)-3-methylpyrrolidine-3-carboxylic Acid]",–,≤ 10,10 to 100,10 to 100
"Cc1cc2cc(CN3CC[C@@H](O)C3)cnc2c(Nc2cccc(-c3cccc(-c4nc5cc(CN6CC[C@@H](C(=O)O)C6)cc(C#N)c5o4)c3C)c2C)n1 [Example 33, (R)-1-((7-cyano-2-(3′-(3-(((R)-3-hydroxypyrrolidin-1-yl)methyl)-6-methyl-1,7-naphthyridin-8-ylamino)-2,2′-dimethylbiphenyl-3-yl)benzo[d]oxazol-5-yl)methyl)pyrrolidine-3-carboxylic Acid]",–,≤ 10,10 to 100,≤ 10
